Several values for one entry are separate records, joined by “and”; a condition that tells them apart may be missing. Equal entries are not always repeated. Entries after “also recorded” stand apart in the source; their conditions may differ. Where two headings read alike, the source gives them in different places.
Key:
apoptotic HeLa cells = test: Modified APTT test with apoptotic HeLa cells as pro-coagulant surface; assay type: cell-based
Method: Apoptotic and control HeLa cells were prepared as described for the FACS analysis. Equal numbers of apoptotic or control non-treated cells (5×10^4) in a volume of […], were mixed with 100 μl of normal plasma, incubated for 1 min at 37° C. in a bath and then calcified by addition of 100 μl of 25 mM CaCl2, and clotting time was measured. Inhibition of the pro-coagulant activity of the apoptotic cells by NST500 compounds was tested following pre-incubation of apoptotic cells for 20 min. at room temperature with increased concentrations of the different NST 500 compounds.
The results can be seen in FIG. 4B.

[1] = tested on: Russell Viper Venom (RVV)-mediated clotting; test: RVV coagulation test in normal plasma; assay type: biochemical
Method: Reactions were started by mixing 100 μl of RVV reagent, and 100 μl of quality control plasma collected from normal individuals (84670-11, Instrumentation Laboratory, Italy). Clotting time was detected by visual inspection following mixing the reaction ingredients in a test tube, until the suspension could no longer be aspirated with a pastuer pipette. Clotting time was measured by two separate researchers.
100 μl of LA screen was then added and clotting time was detected as described.
The control clotting time, when no compound was added to normal plasma was 40 seconds.

HUVEC cells [2] = test: Thrombin generation by HUVEC cells; assay type: cell-based, Human
Text: In vivo, vascular endothelial cells are known to catalyze the formation of thrombin, due to expression of PS on their plasma membrane, at which pro-coagulant complexes are assembled (Van Hardee W L et al., 1994, Biochem J. 302, 305–312). Endothelial cells (EC) play an active role in determining the pro-coagulant/anti-coagulant balance in the vascular system (Gimborne M A et al., 1995, Ann. N. Y. Acad Sci 748, 122–132). Perturbed endothelial cells dramatically increase their pro-coagulant state. […] (FIG. 4D). When HUVEC cells (1.5×10^5) were incubated with the S-2366 substrate, thrombin generation was evident after a lag time of 12.5 minutes, which reflects the time required to assemble a functional complex on the HUVEC surface.
The effect of NST516 compound on HUVEC mediated-thrombin generation was studied.

HUVEC cells [3] = test: Binding to endothelial HUVEC cells by FACS analysis; assay type: cell-based, Human
Method: Binding detection was done using flow cytometric analysis to populations of HUVEC cells.
HUVEC (CC-2517, obtained from Clonetics, Walkersville, Md.) were grown on tissue culture flasks in Endothelial cell medium (EGM-2 Bulletkit, CC 3162, Clonetics). Mid-confluent cultures were harvested using Trypsine/EDTA solution (CC-5012, Clonetics). The cells were rinsed twice with TBS containing 2% BSA and kept on ice. Samples of 10^6 cells were tested for binding.
Cells were washed in 1 ml of TBS-BSA and centrifuged as before and then suspended in 100 μl of TBS-BSA containing streptavidin conjugated to fluorescein (FITC) for detection of the bound biotinylated compound. […] Thereafter, 400 μl of TBS-BSA were added and cells were entrifuged and re-suspended in 400 μl of TBS and taken for FACS analysis.

cardiolipin = tested on: cardiolipin
Text: The antiphospholipid antibody syndrom (APS) is a thrombophilic condition, characterized by a panel of antibodies that recognize anionic phospholipid-protein cofactor complexes. The antiphospholipid antibodies lupus anticoagulant and anticardiolipin, (present in high concentrations in SLE patients), are associated with several medical disorders including artherial and venous thrombosis, and recurrent pregnancy loss (Rand J H et al., 1998, Blood. 92, 1652–1660). […] Noncellular negatively charged phospholipid coated surface (cardiolipin) were chosen as a target for binding.
CL, (Diphosphatidylglycerol, c-1649, Sigma), prepared at 50 μg/ml in ethanol, was added to a 96 well plate (100 μl/well) using Immunolon 4 plates (Dynatech, Chantilly, Va.) and incubated for 16–20 hr for evaporation of ethanol. As control, wells were coated with ethanol only. The coated plates were washed 3 times with 100 μl of blocking buffer (PBS containing 0.3% gelatin (Sigma) and 1 mM EDTA) to block non specific binding. A 5 min incubation time was used between each wash. Normal plasma (Ilex, Italy, 84670-11) and plasma derived from SLE patients (either from Gradipore, Australia, LAHP-1, or from Biopool, Ventura, Calif.) were prepared according to the producer's instruction. The plasma was diluted 1/10 in the blocking buffer and was added to the CL and ethanol coated wells. […] Following 3 hr incubation, the plates were washed twice with PBS/BSA buffer (0.4% bovine serum albumine (BSA) in PBS). For detection of anti cardiolipin binding property of the tested plasma, the plates were incubated with a 1/10000 dilution of Peroxidase-conjugated affinity purified Goat anti-human IgG (Jackson Immunoresearch lab.) in PBS/BSA buffer for 1 hour. The plates were then washed 3 times with PBS/BSA buffer, and color reaction was developed by incubation with 100 ul of 0-phenylenedi-amine (OPD) dihydrochloride (Sigma p-7288) at a concentration of 0.4 mg/ml in 0.05 M phosphate citrate buffer, pH 5.0 supplemented with 4 ul of 30% hydrogen peroxide (Aldrich) for 10 ml mixture. To detect the level of NST500 compounds that were bound to CL, parallel wells were incubated with streptavidin conugated to OPD (SA-OPD, Jackson Immunoresearch lab.), that specifically recognize the biotinylated NST 500 compounds. The resulting colour changes were recorded at 405 nm using a Bio Tek Elx800 Eliza reader.

HUVEC cells [4] = test: Cell-ELISA: binding of anti β2GPI antibodies to HUVEC cells; assay type: cell-based, Human
Method: Human β2GPI is a plasma phospholipid binding protein that is required for the binding of autoantibodies in sera from patients with APS to cardiolipin (McNeil H P et al., 1990 Proc. Natl. Acad. Sci. 87, 4120–4124). […] Anti β2GPI antibodies are present in sera of APS patients. […] For cell-ELISA tests, HUVEC cells (at 40,000/well), were plated on 96 well tissue culture plates (Nunc) in 200 μl of the culture medium, and allowed to grow for 18–22 hours. Following 2 washes with Hepes buffer (10 mM Hepes pH 8, 140 mM NaCl) and 5 min incubation with the culture medium, the wells were incubated for 3 hr with 10% of normal plasma in PBS (as a source of β2 GPI protein), supplemented with 1/500 of goat anti-human Apolipoprotein-H (β2 GPI) (Affinity biologicals, PA). Parallel control wells were incubated with 10% of normal plasma from Ilex. Serial dilutions of NST500 compounds were prepared in plasma/PBS. Washes and development were as described for anti CL ELISA.
As presented in FIG. 5B, in the presence of plasma and absence of NST500, HUVEC cells supported binding of anti β2GPI to their surface. However, displacement of anti β2GPI by NST500 compounds in this system occurred in a concentration dependent manner, similar to the results obtained with CL.

## Myristate-KVSFFCKNKEKKC-K (SEQ ID NO:1) (biotin) [NST513]
Apoptotic HeLa cells; 2.5–2.2 μM
  effect on clotting time of apoptotic cells: marked and dose dependent inhibition of clotting time; also recorded: dose-dependent effect
  increase of clotting time of apoptotic cells (factor): 3.2 times
Apoptotic HeLa cells; apoptotic cells alone 50 seconds, control cells 80 seconds
  clotting time of apoptotic cells: 160 s
[1]; RVV clotting time, read-out: EC50 (effective dose of 50%)
  EC50: 3 to 5 µM
[1]; RVV test, normal plasma, 2.5–20 μM, control 40 seconds
  prolongation of clotting time (factor): 3.75 and 3.5
HUVEC cells [2]
  delay in thrombin generation: 2.5 min
  thrombin generation by HUVEC cells: dramatic inhibition of thrombin generation; also recorded: fully block thrombin generation; also recorded: slight inhibition of thrombin generation; also recorded: further delayed the lag period; also recorded: total blockage of thrombin formation
  thrombin generation by HUVEC cells, dose response: dose dependent inhibition of thrombin generation
HUVEC cells [3]; 500 nM
  binding to HUVEC cells: strong binding
  cells FITC positive: About 70%
HUVEC cells [3]; 250 μM
  fraction of HUVEC cells labeled: about 50%
cardiolipin; 1 μM
  displacement of plasma derived from SLE patients from cardiolipin: did not exhibit displacement
cardiolipin; 10 μM
  displacement of plasma derived from SLE patients from cardiolipin: almost complete displacement
cardiolipin; 1–10 μM
  inhibition of binding of plasma derived from SLE patients to cardiolipin, dose response: marked displacement of IgG
HUVEC cells [4]
  less potent than NST516 in blocking anti β2 GPI binding: 50%

From patent publication US7196063B1, “Peptides and pharmaceutical compositions comprising same” (NST NeuroSurvival Technologies Ltd., priority 1999, dated 2007)
